Assay results taken from patent publication US5861404A, “2,9-disubstituted purin-6-ones” (Bayer Aktiengesellschaft, priority 1995, dated 1999).
pIC50: −log10 of the molar value.

Tests used:
Format in all cases: biochemical
[1] = system: Ca-calmodulin-stimulatable PDE I; assay: Inhibition of the phosphodiesterases in vitro: PDE I; details: PDE I from porcine aorta or porcine brain; nucleotide 10^-6 mol/l; 1 μM CaCl2, 0.1 μM calmodulin; pH 7.5, 30 minutes
Protocol: (§1) The cGMP-stimulatable PDE II, the cGMP-inhibitable PDE III and the cAMP-specific PDE IV were isolated from either porcine or bovine myocardium. The Ca-calmodulin-stimulatable PDE I was isolated from the porcine aorta or porcine brain. The cGMP-specific PDE V was obtained from the porcine small intestine, porcine aorta and/or human blood platelets. Purification was carried out by anion exchange chromatography over MonoQ Phaacia essentially by the method of M. Hoey and Miles D. Houslay, Biochemical Pharmacology, Vol. 40, 193-202 (1990).
(§2) The enzyme activity is determined in a test batch of 100 μl in 20 mM Tris/HCl buffer of pH 7.5 which comprises 5 mM MgCl2, 0.1 mg/ml of bovine serum albumin and either 800 Bq of ^3 HcAMP or ^3 HcGMP. The final concentration of the corresponding nucleotides is 10^-6 mol/l. The reaction is started by addition of the enzyme and the amount of enzyme is chosen such that about 50% of the substrate is reacted during the incubation time of 30 minutes. To test the cGMP-stimulatable PDE II, ^3 HcAMP is used as the substrate and 10^-6 mol/l of non-labelled cGMP is added to the batch. To test the Ca-calmodulin-dependent PDE I, 1 μM CaCl2 and 0.1 μM calmodulin are also added to the reaction batch. The reaction is stopped by addition of 100 μl of acetonitrile which comprises 1 mnM cAMP and 1 mM AMP. 100 μl of the reaction batch are separated on the HPLC column and the cleavage products are determined quantitatively "online" with a flow-through scintillation counter. The substance concentration at which the rate of reaction is reduced by 50% is measured.

cGMP-stimulatable PDE II = assay: Inhibition of the phosphodiesterases in vitro: PDE II; details: PDE II from porcine or bovine myocardium; 3H-cAMP substrate 10^-6 mol/l with 10^-6 mol/l cGMP; pH 7.5, 30 minutes
Protocol: as §1, §2

cGMP-specific PDE V = assay: Inhibition of the phosphodiesterases in vitro: PDE V; details: PDE V from porcine small intestine, porcine aorta and/or human blood platelets; nucleotide 10^-6 mol/l; pH 7.5, 30 minutes
Protocol: as §1, §2

pIC50 [1] | pIC50 (cGMP-stimulatable PDE II) | pIC50 (cGMP-specific PDE V) | Structure (SMILES)
5.00 | 5.52 | 4.30 | CCCCCCC(C(C)O)n1cnc2c(=O)[nH]c(-c3ccc(Cl)cc3)nc21 (centres unmarked) [Example 5]
4.40 | 5.70 | – | CC(O)C(CCCc1ccccc1)n1cnc2c(=O)[nH]c(C3CCCCC3)nc21 (centres unmarked) [Example 8, 9-(2-hydroxy-6phenyl-3-hexyl)-2-cyclohexyl-purin-6one]
5.40 | 6.22 | 6.52 | CC(CCCc1ccccc1)n1cnc2c(=O)[nH]c(C3CC3)nc21 (centres unmarked) [Example 14]
6.00 | 6.40 | 6.00 | CC(CCCc1ccccc1)n1cnc2c(=O)[nH]c(-c3ccc(-c4ccccc4)cc3)nc21 (centres unmarked) [Example 20]
5.52 | 7.00 | 5.00 | CC(CCCc1ccccc1)n1cnc2c(=O)[nH]c(-c3ccc4c(c3)OCO4)nc21 (centres unmarked) [Example 25]
